Data reported in EP0288563B1, “CYCLIC AMINE DERIVATIVES” (Eisai Co., Ltd., priority 1986, dated 1988).
Counter-ions that a name gives are not always drawn.

Experiments:
[1] = tested on: ischemic brain; assay: Effect of protecting ischemic brain (survival time after ligation of both carotid arteries); assay type: in vivo, ICR mice; conditions: for Average survival time (min) (average ± S.E.): maximum 6 h, control group 149.9 ± 25.8; for %: survival time relative to control group (100)
Procedure: Carotid arteries of both sides of ICR mice (6 to 8 weeks old) were exposed under halothane anesthesia and ligated. The mice thus treated had stroke symptoms such as jumping, rolling and convulsion and almost all of them died within 24 h.
The compound of the present invention was administered orally to the mice one hour before the ligation and the survival time (maximum: 6 h) was examined as an index of the effect of protecting eschemic brain. In this experiment, the compound was used in the form of a 5% suspension in acacia and a 5% acacia solution was given to the control group.

[2] = tested on: nerve cells in the CAI region of the hippocampus; assay: Effect of protecting cells from disorder after ischemia (nerve cell count in hippocampus); assay type: in vivo, Mongolian gerbils; conditions: counted after one week, normal group 287 ± 6, control group 21 ± 10
Procedure: Carotid arteries on both sides of Mongolian gerbils were blocked to realize cerebral ischemia for 5 min. As a result, the nerve cells in the CAI region of the hippocampus disappeared extensively [Karino, T.: Brain Res., 239, 57 to 69 (1982)].
The compound of the present invention was administered orally to them, while a 5% acacia suspension was administered to the control group. After one hour, the ischemia was realized for 5 min. After one week, the animal was perfused and fixed with 4% neutral formalin transcardially. The treated sample was embedded in paraffin and cut to obtain slices having a thickness of 3 µm. The slices were dyed with hematoxylin-eosin and the number of the nerve cells in the CAI region of the hippocampus of each slice was counted.
The nerve cell density in the CAI region of the hippocampus was 287/mm in the normal (pseudo-operation) group and that of the control group was as small as 21/mm. Namely, a serious disappearance of the cell was caused by the 5-min ischemia. […]

[3] = 3 mg/kg p.o. one hour before ligation
[4] = 10 mg/kg p.o. one hour before ligation
[5] = 30 mg/kg p.o. one hour before ligation
[6] = 10 mg/kg p.o. one hour before 5-min ischemia
[7] = 30 mg/kg p.o. one hour before 5-min ischemia

| SMILES | Average survival time (min) (average ± S.E.) [1, 3] | Average survival time (min) (average ± S.E.) [1, 4] | Average survival time (min) (average ± S.E.) [1, 5] | % ([1]; 3 mg/kg p.o.) | % ([1]; 10 mg/kg p.o.) | % ([1]; 30 mg/kg p.o.) | Nerve cell density (number/mm) ([2]; 3 mg/kg p.o. one hour before 5-min ischemia) | Nerve cell density (number/mm) [2, 6] | Nerve cell density (number/mm) [2, 7] |
| --- | --- | --- | --- | --- | --- | --- | --- | --- | --- |
| O=C(CN1CCC(C(=O)c2ccc(F)cc2)CC1)c1ccc2ccccc2c1 [Example 12, 2-[4-p-Fluorobenzoyl)piperidinyl]-2'-acetonaphthone hydrochloride] | 213.7 ± 52.3 min | 181.4 ± 43.6 min | 191.1 ± 54.3 min | 143% | 121% | 128% | 62 ± 26 number/mm | 75 ± 32 number/mm | 83 ± 32 number/mm |
| O=C(CN1CCC(=Cc2ccc(F)cc2)CC1)c1ccc2ccccc2c1 [Example 74] | 143.3 ± 39.6 min | 205.1 ± 43.6 min | 194.2 ± 49.7 min | 96% | 137% | 130% | – | – | 62 ± 5 number/mm |
| c1ccc(CC2CCN(CCc3ccc4ccccc4c3)CC2)cc1 [Example 73] | – | 150.4 ± 57.6 min | 275.2 ± 58.2 min | – | 100% | 184% | – | 69 ± 21 number/mm | 49 ± 8 number/mm |
